Test results as given in patent US20120259007A1, “ANTICOAGULANT COMPOUNDS AND THEIR USE” (HAOMA MEDICA LIMITED, priority 2009, published 2012).

What follows are molecules tested on Mice (assay: Observed anticoagulant activity (bleeding) in treated mice). Details: single injection 15 μg/mouse/day intraperitoneally in 10% ethanol in saline.
Assay type: in vivo
Description: Mice were treated with one compound of the present invention (4E)-6-(1,4-dihydro-2-methyl-1,4-dioxonaphthalen-3-yl)-4-methylhex-4-enoic acid (VIII) [also called NaQuinate herein] in the form of a single injection (15 μg/mouse/day) administered in 10% ethanol in saline injections intraperitoneally. Control mice received the carrier but not the NaQuinate active component.

Compound	bleeding compared with mice not treated (anticoagulant effect)
CC1=C(C/C=C(\C)CCC(=O)O)C(=O)c2ccccc2C1=O [NaQuinate (VIII), (4E)-6-(1,4-dihydro-2-methyl-1,4-dioxonaphthalen-3-yl)-4-methylhex-4-enoic acid]	bleed out much more profusely

What follows are molecules tested against T1, recombinant human γ-carboxylase (Homo sapiens, UniProt P38435) (assay: Inhibition of recombinant human gamma-carboxylase (14CO2 incorporation, microsomes from High Five cells)). Details: in the presence of 220 μM vitamin K1 hydroquinone; compounds reduced to hydroquinone forms; n=1; read-out: IC50 against 220 μM vitamin K1.
T1 construct: made in house; host or cells: Trichoplusia ni High Five cells (microsomes)
T1 sequence (P38435 1-758): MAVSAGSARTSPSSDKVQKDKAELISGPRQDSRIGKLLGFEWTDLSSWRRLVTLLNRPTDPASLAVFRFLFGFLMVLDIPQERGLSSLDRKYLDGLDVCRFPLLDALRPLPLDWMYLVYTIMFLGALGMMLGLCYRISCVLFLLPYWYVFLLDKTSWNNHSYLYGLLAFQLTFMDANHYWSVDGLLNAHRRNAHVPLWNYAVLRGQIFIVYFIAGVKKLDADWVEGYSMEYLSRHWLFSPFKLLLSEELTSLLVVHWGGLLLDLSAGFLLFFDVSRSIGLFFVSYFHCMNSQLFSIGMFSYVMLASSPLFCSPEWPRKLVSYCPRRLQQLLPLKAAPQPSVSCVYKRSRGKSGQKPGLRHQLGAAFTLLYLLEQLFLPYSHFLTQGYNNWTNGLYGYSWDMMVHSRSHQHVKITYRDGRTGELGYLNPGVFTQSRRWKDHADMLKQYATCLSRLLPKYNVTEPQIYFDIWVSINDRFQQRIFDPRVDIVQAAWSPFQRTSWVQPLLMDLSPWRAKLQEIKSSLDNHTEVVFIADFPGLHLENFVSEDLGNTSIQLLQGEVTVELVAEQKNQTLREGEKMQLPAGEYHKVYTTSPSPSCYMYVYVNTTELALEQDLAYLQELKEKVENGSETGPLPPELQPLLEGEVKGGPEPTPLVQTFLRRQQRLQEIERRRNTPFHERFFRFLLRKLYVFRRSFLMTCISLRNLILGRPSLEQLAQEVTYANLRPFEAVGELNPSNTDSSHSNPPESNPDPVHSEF
Assay type: biochemical
Description: The compounds to be tested were reduced to their hydroquinone forms by the addition of 0.2 M DTT to a solution of the compounds in DMSO (giving a final v/v ratio of 1:3 DTT:DMSO) and overnight incubation in a water bath (37° C.).
In this assay a different microsomal preparation was used than the one described above. This microsomal preparation consists of microsomes prepared from Trichoplusia ni High Five cells that had had the cDNA for the human γ-carboxylase incorporated into their DNA. These microsomes were taken from stores that had been prepared as described by Houben, R. J., D. Jin, et al. (1999). “Osteocalcin binds tightly to the gamma-glutamylcarboxylase at a site distinct from that of the other known vitamin K-dependent proteins.” Biochem J 341 (Pt 2): 265-9.
Standard reaction mixtures contained 5 μl of microsomal preparation, 5 μl of 500 μM decarboxylated osteocalcin (d-OC) (except for the negative control tube), 25 μl of saturated ammonium sulphate solution, 5 μl of 5% PC/CHAPS. In addition to this, 1:3 (v/v) DMSO: 0.2 M DTT was added to the tubes (to take into account the fact that the compounds were dissolved in 1:3 DMSO: 0.2 M DTT) to give a total volume of 40 μl DMSO: 0.2 M DTT per tube. A solution of Buffer D was added to give all final tubes a uniform volume of 125 μl. The experiment was initiated by the addition of 10 μl of a 1:1 (v/v) mixture of vitamin K hydroquinone (final concentration of 220 μM) and NaH^14CO3 (final radioactivity of 5 μCi) to each tube, followed by a range of concentrations of the compounds.

Compound	IC50 [µM]
COC(=O)C(C)CCC1=C(C)C(=O)c2ccccc2C1=O (stereo not shown) [KCAT-5C-Me (XIX)]	514
COC(=O)CCC(C)=CCC1=C(C)C(=O)c2ccccc2C1=O [NaQuinate-Me (VII)]	358
COC(=O)CC/C(C)=C/CC1=C(C)C(=O)C(OC)=C(OC)C1=O [QCAT-Me (XVIII)]	534
CC1=CC(=O)c2ccccc2C1=O [Vitamin K3 (III), menadione, reference compound]	460

Now those with a lower IC50, led by results:

IC50 [µM]	Compound
340	CC1=C(C/C=C(\C)C(=O)O)C(=O)c2ccccc2C1=O [KCAT-5C (XIV), (2E)-4-(1,4-dihydro-2-methyl-1,4-dioxonaphthalen-3-yl)-2-methylbut-2-enoic acid]
152	CC1=C(C/C=C(\C)CCC(=O)O)C(=O)c2ccccc2C1=O [NaQuinate (VIII), (4E)-6-(1,4-dihydro-2-methyl-1,4-dioxonaphthalen-3-yl)-4-methylhex-4-enoic acid]
